# Data published in US20260337212A1, “IP4-4,6 SUBSTITUTED DERIVATIVE COMPOUNDS FOR USE IN THE TREATMENT, INHIBITION OF PROGRESSION, AND PREVENTION OF ECTOPIC CALCIFICATION” (SANIFIT THERAPEUTICS, S.A., priority 2022, published 2026).
# Experiments:
# [1] = Rat calcinosis cutis/calciphylaxis model (vitamin D3 and FeCl3): skin plaque calcification; format: in vivo, Sprague Dawley rat; conditions: for Skin plaque % inhibition of calcification: FeCl3 0.5 mg/kg
# Description: The dose-response efficacy of IP4-4,6 derivatives in the prevention and treatment of calcinosis cutis and calciphylaxis (CUA) induced by vitamin D3 and FeCl3 in a rat model was used. The model evaluated the effects of Compound 27 and IP6 on the formation of calcified skin plaques in rats for a duration of 8 days. Animals were sensitized at low concentration (LC, 35,000 IU/kg) and high concentration (HC, 50,000 IU/kg) doses of vitamin D3. A FeCl3 solution (0.5 mg/kg) was used as challenger to induce the formation of skin plaques. All animals were weighed every day before treatment.
# Eighty-six male Sprague Dawley (SD) rats (Envigo Corp., Huntingdon, GB) weighing approximately 250-300 g were used. The animals were fed with a standard LASQCdiet® Rod14-H diet (LASvendi, Soest, DE). The animals were divided in 8 groups, 6 to 12 animals per group, as follows:
# The following solutions were prepared: (a) 17,500 IU/mL (LC) and 25,000 IU/mL (HC) vitamin D3 (cholecalciferol, Duphafral D3 1000; Zoetis Inc., Parsippany, NJ, US), (b) 0.3 mg/mL FeCl3 (FeCl3·6H2O, 99%, Scharlab S. L., Barcelona, E S), (c) 30 mg/mL IP6 (660 g/mol phytic acid, pH 6.5-7.7), and (d) 15, 30, and 50 mg/mL Compound 27 (754.45 g/mol free acid, pH 6.5-7.7). All solutions were prepared in a 0.9% (w/v) physiological saline NaCl medium. An application volume of 2 mL/kg was employed.
# Group 1—Control (sham), 6 animals. Animals in group 1 were administered subcutaneously physiological saline (0.9% (w/v) NaCl solution daily from D1 to D3 in the interscapular space, and with one saline 0.9% injection at each of the two ventral sites in the thorax on D4. Animals in group 1 were not administered Vit D or FeCl3 solutions.
# (§1) Group 2—Physiological saline solution low concentration (Vehicle LC): Vit D 35,000 IU/kg, 0.5 mg/kg FeCl3 solution, 10 animals. Vit D at dose 35,000 IU/kg was administered subcutaneously x 3 consecutive days (D1, D2, D3), and one 0.5 mg/kg FeCl3 injection at each of the two ventral sites in the thorax on D4. This group received a daily saline 0.9% s.c. treatment (D1 to D8).
# (§2) Group 3—Compound 27 60 mg/kg LC: Vit D 35,000 IU/kg, 0.5 mg/kg FeCl3, 10 animals. Vit D at dose 35,000 IU/kg was administered subcutaneously x 3 consecutive days (D1, D2, D3), and one 0.5 mg/kg FeCl3 injection at each of the two ventral sites in the thorax on D4. This group received a daily Compound 27 s.c. treatment at 60 mg/kg dose (D1 to D8).
# as §1, with “4—Physiological” for “2—Physiological”, “high” for “low”, “HC):” for “LC):”, “50,000” for “35,000”, “FeCl3, 12” for “FeCl3 solution, 10”
# as §2, with “5—IP6” for “3—Compound 27”, “HC,” for “LC:”, “50,000” for “35,000”, “12” for “10”, “IP6” for “Compound 27”
# as §2, with “6—Compound” for “3—Compound”, “30” for “60”, “HC,” for “LC:”, “50,000” for “35,000”, “12” for “10”
# as §2, with “7—Compound” for “3—Compound”, “[…],” for “LC:”, “50,000” for “35,000”, “12” for “10”
# Group 8—Compound 27 100 mg/kg HC, Vit D 50,000 IU/kg, 0.5 mg/kg FeCl3, 12 animals. […]
# [2] = tested on: abcc6a−/− zebrafish larvae; assay: abcc6a−/− zebrafish model of Pseudoxanthoma elasticum: spinal column hypermineralization (Alizarin Red); format: in vivo; conditions: 3 to 10 dpf
# Description: FIG. 16 depicts an analysis of hypermineralization using Alizarin Red staining in 10 dpf abcc6a^−/− zebrafish larvae. The larvae were kept in E3-medium (n=20) and E3-medium supplemented with Compound 27 1 mM (n=18) from 3 to 10 dpf.
# A stable CRISPR/Cas9 abcc6a^−/− zebrafish model characterized for spinal column hypermineralization was used for assaying the efficacy of Compound 27 in the treatment of Pseudoxanthoma elasticum (PXE; Van Gils M, et al., J Invest Dermatol […]; 138:2333-2342).
# Abcc6a^−/− larvae were treated with Compound 27 at different concentrations (i.e., 100 μM, 300 μM, and 1 mM) for 7 days, starting at 3 days post fertilization (dpf), with daily refreshment of the medium containing the solved compounds. On 10 dpf, the larvae were euthanized and stained with Alizarin Red to visualize the spinal column hypermineralization, using a Leica M165 FC microscope (Leica Microsystems GmbH, Wetzlar, DE). Semi-quantification of calcification was done through image processing with ImageJ […] (Rasband W, Research Services Branch, NIH, Bethesda, MD, US).
substance,measurement,setting,value
"4,6-O-bis(5-acetamidopentyl)-myo-inositol-1,2,3,5-tetrakis(phosphate) octasodium salt [Compound 27]",Skin plaque % inhibition of calcification,"[1]; 30 mg/kg s.c. daily D1-D8, HC (vitamin D3 50,000 IU/kg)",96.8 ± 0.7 %
same,Skin plaque % inhibition of calcification,"[1]; 60 mg/kg s.c. daily D1-D8, HC (vitamin D3 50,000 IU/kg)",98.2 ± 0.1 %
same,Skin plaque % inhibition of calcification,"[1]; 60 mg/kg s.c. daily D1-D8, LC (vitamin D3 35,000 IU/kg)",95.7 ± 0.9 %
same,Skin plaque % inhibition of calcification,"[1]; 100 mg/kg s.c. daily D1-D8, HC (vitamin D3 50,000 IU/kg)",98.6 ± 0.1 %
same,Inhibition of the formation of skin plaque,"[1]; 30, 60, 100 mg/kg s.c.",inhibits the formation of skin plaque in rats in a dose-response manner
same,Degree of inhibition of skin plaque calcification compared with IP6,[1]; same dose (60 mg/kg),higher than that reached by IP6 at the same dose
same,Reduction of spinal hypermineralization (in words),"[2]; 1 mM in E3-medium, FIG. 16",Significant reduction of spinal hypermineralization
same,Average reduction of spinal column hypermineralization,[2]; 1 mM in medium,60%
same,Physiological calcification and bone formation,[2]; 1 mM in medium,conservation of the physiological calcification and bone formation
same,Significance (p) of reduced spinal hypermineralization vs untreated,[2]; 1 mM in medium,< 0.001
same,Relative calcified area,"[2]; 1 mM in medium, untreated 35.2",14.17
